Laboratory results published in US9587266B2, “Mutant luciferases” (University of Massachusetts, priority 2011, dated 2017).

Assays:
[1] = target: T1, R218K luciferase (Photinus pyralis, UniProt P08659, R218K); test: Small molecule luciferase inhibition assay; format: biochemical; conditions: inhibitor 2 or 20 μM, enzyme titration
T1 construct: The full firefly (Photinus pyralis) luciferase gene was PCR amplified from pGL3 (Promega); GST (N, cleaved yes); made in house; host or cells: E. coli JM109
Experimental: Enzyme titration assays were performed under the same conditions, using 0 μM, 2 or 20 μM of the luciferase inhibitor 2-(4-methoxyphenyl)benzothiazole, a constant final luciferin substrate concentration of 20 μM, and serial 2-fold dilutions of luciferase concentration from 20 nM down to 0.01 nM.

[2] = target: T2, WT luciferase (Photinus pyralis, UniProt P08659); format: biochemical; conditions: WT luciferase treated with D-luciferin; inhibitor 2 or 20 μM, enzyme titration
T2 construct: The full firefly (Photinus pyralis) luciferase gene was PCR amplified from pGL3 (Promega); GST (N, cleaved yes); made in house; host or cells: E. coli JM109
T2 sequence (P08659 whole entry): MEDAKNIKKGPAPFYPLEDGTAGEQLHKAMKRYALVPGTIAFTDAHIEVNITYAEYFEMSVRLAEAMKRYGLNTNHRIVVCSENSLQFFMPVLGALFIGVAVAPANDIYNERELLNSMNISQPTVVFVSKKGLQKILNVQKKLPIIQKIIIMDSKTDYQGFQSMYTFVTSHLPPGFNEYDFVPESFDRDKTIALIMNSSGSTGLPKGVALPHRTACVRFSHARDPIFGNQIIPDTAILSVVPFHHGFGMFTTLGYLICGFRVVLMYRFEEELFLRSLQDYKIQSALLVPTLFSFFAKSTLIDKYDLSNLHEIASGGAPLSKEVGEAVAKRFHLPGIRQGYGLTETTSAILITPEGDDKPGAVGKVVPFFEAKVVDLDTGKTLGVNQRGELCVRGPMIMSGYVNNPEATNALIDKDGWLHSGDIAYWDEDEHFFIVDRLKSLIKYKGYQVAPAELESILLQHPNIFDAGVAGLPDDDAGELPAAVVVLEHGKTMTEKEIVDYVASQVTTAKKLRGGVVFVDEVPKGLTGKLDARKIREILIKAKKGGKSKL
Experimental: Luminescence assays in 96-well plates were initiated by adding 30 μL 2× luciferin substrate in 20 mM Tris pH 7.4, 0.1 mM EDTA, 8 mM MgSO4, 4 mM ATP, and 1 mM TCEP to 30 μL of 20 nM purified luciferase in 20 mM Tris pH 7.4, 0.1 mM EDTA, 1 mM TCEP and 0.4 mg/mL BSA. Substrate titration assays were performed 3 minutes post-substrate addition in a Turner Veritas luminometer with final substrate concentrations ranging from 0.122-250 μM in the presence of 0 μM, 1 μM, or 10 μM of the luciferase inhibitor 2-(4-methoxyphenyl)benzothiazole. Enzyme titration assays were performed under the same conditions, using 0 μM, 2 or 20 μM of the luciferase inhibitor 2-(4-methoxyphenyl)benzothiazole, a constant final luciferin substrate concentration of 20 μM, and serial 2-fold dilutions of luciferase concentration from 20 nM down to 0.01 nM.

T1 sequence (P08659 whole entry R218K): as the sequence (P08659 whole entry) above, with R218K counted along it

## COc1ccc(-c2nc3ccccc3s2)cc1 [2-(4-methoxyphenyl)-benzothiazole, 2-(4-methoxyphenyl)benzothiazole]
[1]; R218K luciferase treated with D-luciferin
  effect of luciferase inhibitor on light output: strongly inhibited
[1]; R218K luciferase with CycLuc2 as substrate
  effect of luciferase inhibitor on light output: largely unaffected
[2]
  effect of luciferase inhibitor on light output: strongly inhibited
